# Source: PubChem BioAssay (NCI)
#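 Tested at 5 concentrations; 48 h exposure; 96-well plates; endpoints linearly interpolated, else capped at highest concentration. GI50 is the concentration that inhibits growth by half. TGI denotes the concentration required for complete inhibition of growth.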
# Legend:
# Experiment in all cases: NCI-60 cell line screen, 48 h
# SW-620 colon = tested on: SW-620 colon
# COLO 205 colon = tested on: COLO 205 colon
# SF-539 CNS = tested on: SF-539 CNS
# MOLT-4 leukemia = tested on: MOLT-4 leukemia
# RXF 393 renal = tested on: RXF 393 renal
# HOP-92 NSCLC = tested on: HOP-92 NSCLC
# NCI/ADR-RES ovarian = tested on: NCI/ADR-RES ovarian
# OVCAR-3 ovarian = tested on: OVCAR-3 ovarian
# SK-OV-3 ovarian = tested on: SK-OV-3 ovarian
# A549 NSCLC = tested on: A549 NSCLC
Compound,TGI (SW-620 colon),TGI (COLO 205 colon),TGI (SF-539 CNS),TGI (MOLT-4 leukemia),TGI (RXF 393 renal),TGI (HOP-92 NSCLC),TGI (NCI/ADR-RES ovarian),TGI (OVCAR-3 ovarian),TGI (SK-OV-3 ovarian),TGI (A549 NSCLC),GI50 (A549 NSCLC),GI50 (NCI/ADR-RES ovarian),GI50 (OVCAR-3 ovarian),GI50 (SK-OV-3 ovarian),GI50 (MOLT-4 leukemia),GI50 (HOP-92 NSCLC)
CN[C@@H]1[C@H](O)[C@H](NC)[C@H]2O[C@@]3(O)C(=O)C[C@@H](C)O[C@H]3O[C@@H]2[C@H]1O,> 100 µM,> 100 µM,> 100 µM,> 100 µM,> 100 µM,> 100 µM,> 100 µM,> 100 µM,> 100 µM,–,–,–,–,–,–,–
CCCNCC(O)/C=C/[Si](C)(C)C (stereo not drawn) (tested in a mixture with another compound),> 100 µM,> 100 µM,> 100 µM,–,> 100 µM,> 100 µM,–,> 100 µM,> 100 µM,> 100 µM,–,–,–,–,–,–
Cc1c2ccccc2nc2[nH]c3ccncc3c12,> 100 µM,> 100 µM,> 100 µM,> 100 µM,–,79.6 µM,72.4 µM,91.9 µM,> 100 µM,> 100 µM,–,–,–,–,–,–
C[n+]1ccccc1/C=C/c1ccc2c(c1)OCO2,> 10 µM,> 10 µM,> 10 µM,> 10 µM,> 10 µM,–,> 10 µM,> 10 µM,> 10 µM,> 10 µM,–,–,–,–,–,–
CC1(C)[C@@H]2C[C@H]1C(Cc1ccccc1C[C@H]1c3cc(-c4ccccn4)ncc3[C@H]3C[C@@H]1C3(C)C)c1cc(-c3ccccn3)ncc12 (stereo partly drawn),> 100 µM,> 100 µM,8.42 µM,1.23 µM,> 25.1 µM,–,> 36.7 µM,1.45 µM,> 100 µM,> 100 µM,–,–,–,–,–,–
CCCCCCc1ccc(O)cc1O,> 100 µM,> 100 µM,> 100 µM,97.4 µM,> 100 µM,86.9 µM,> 100 µM,> 100 µM,> 100 µM,> 100 µM,–,–,–,–,–,–
Oc1ccc2ccccc2c1N=Nc1ccc(N=Nc2ccccc2)cc1,> 100 µM,> 100 µM,–,> 100 µM,> 100 µM,–,> 100 µM,> 100 µM,> 100 µM,> 100 µM,–,–,–,–,–,–
O=S(=O)(O)c1cc(O)c2c(O)c(N=Nc3ccc(/C=C/c4ccc(N=Nc5c(S(=O)(=O)O)cc6cc(S(=O)(=O)O)cc(O)c6c5O)cc4S(=O)(=O)O)c(S(=O)(=O)O)c3)c(S(=O)(=O)O)cc2c1,> 100 µM,> 100 µM,> 100 µM,> 100 µM,> 100 µM,> 100 µM,–,> 100 µM,> 100 µM,> 100 µM,–,–,–,–,–,–
CCOC(=O)C1=C(C)N(Cc2ccc(Cl)cc2Cl)C2(O)C(OC)CC(=O)C3C(=O)N(c4ccccc4)C(=O)C132 (stereo not drawn),7.15 µM,13.4 µM,12.7 µM,7.82 µM,3.14 µM,7.95 µM,7.63 µM,3.44 µM,–,12.4 µM,–,–,–,–,–,–
Cc1ccc(NCCN(C)CC(C)O)c2c(=O)c3ccc(Cl)cc3sc12 (stereo not drawn),–,–,–,–,–,–,> 100 µM,> 100 µM,> 100 µM,> 100 µM,4.08 µM,4.68 µM,4.13 µM,3.19 µM,–,–
CN(C)CCNc1ccc2nnn3c4ccc(Cl)cc4c(=O)c1c23,18 µM,10.5 µM,16.2 µM,13.3 µM,13.1 µM,14.2 µM,15.9 µM,23 µM,35.1 µM,14.1 µM,–,–,–,–,–,–
COc1cc2c(cc1O)CCN[C@@]21CS[C@H]2c3c(OC(C)=O)c(C)c4c(c3C(COC1=O)N1C2C2c3c(cc(C)c(OC)c3O)CC([C@@H]1O)N2C)OCO4 (stereo partly drawn),–,–,–,–,–,0.064 µM,–,–,–,–,–,0.0112 µM,–,0.00246 µM,< 1 pM,0.00347 µM
